Source: patent publication US12077503B2, “Substituted cyclic amides and their use as herbicides” (FMC CORPORATION, priority 2015, dated 2024)

Experiments:
Format in all cases: in vivo
[1] = tested on: barnyardgrass (Echinochloa crus-galli); assay: Test G Pre-Emergence Protocol; conditions: Echinochloa crus-galli, pre-emergence, 312 h, evaluated after 13 days; for pest or weed control at 15.625 g/ha: 15.625 g ai/ha; for pest or weed control at 15.625 g/ha / pest or weed control at 250 g/ha: read-out: Barnyardgrass damage rating (100=total damage to plant; 0=no damage to plant); for pest or weed control at 62.5 g/ha: 62.5 g ai/ha, 100=total damage to plant, 0=no damage to plant, read-out: Barnyardgrass damage rating; for pest or weed control at 250 g/ha: 250 g ai/ha
Method in brief: (§1)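 Glasshouse pre-emergence test: soil-sown seeds, sprayed after 1 d at 15.625, 62.5 or 250 g/ha. Conditions 24/16° C day/night, 14 h light, 65% humidity, watering twice daily. Rating 13 d post-spray (100 = total damage).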

corn (Zea mays) [2] = assay: Test G Pre-Emergence Protocol; conditions: Zea mays, pre-emergence, 312 h, evaluated after 13 days; for plant injury at 15.625 g/ha: 15.625 g ai/ha; for plant injury at 15.625 g/ha / plant injury at 250 g/ha: read-out: Corn damage rating (100=total damage to plant; 0=no damage to plant); for plant injury at 62.5 g/ha: 62.5 g ai/ha, 100=total damage to plant, 0=no damage to plant, read-out: Corn damage rating; for plant injury at 250 g/ha: 250 g ai/ha
Method in brief: as §1

[3] = tested on: giant foxtail (Setaria faberi); assay: Test G Pre-Emergence Protocol; conditions: Setaria faberi, pre-emergence, 312 h, evaluated after 13 days; for pest or weed control at 15.625 g/ha: 15.625 g ai/ha; for pest or weed control at 15.625 g/ha / pest or weed control at 250 g/ha: read-out: Foxtail, Giant damage rating (100=total damage to plant; 0=no damage to plant); for pest or weed control at 62.5 g/ha: 62.5 g ai/ha, 100=total damage to plant, 0=no damage to plant, read-out: Foxtail, Giant damage rating; for pest or weed control at 250 g/ha: 250 g ai/ha
Method in brief: as §1

[4] = tested on: ivy-leaved morning glory (Ipomoea hederacea); assay: Test G Pre-Emergence Protocol; conditions: Ipomoea, pre-emergence, 312 h, evaluated after 13 days; for pest or weed control at 15.625 g/ha: 15.625 g ai/ha; for pest or weed control at 15.625 g/ha / pest or weed control at 250 g/ha: read-out: Morningglory, Ivy-leaved damage rating (100=total damage to plant; 0=no damage to plant); for pest or weed control at 62.5 g/ha: 62.5 g ai/ha, 100=total damage to plant, 0=no damage to plant, read-out: Morningglory, Ivy-leaved damage rating; for pest or weed control at 250 g/ha: 250 g ai/ha
Method in brief: as §1

[5] = tested on: redroot pigweed (Amaranthus retroflexus); assay: Test G Pre-Emergence Protocol; conditions: Amaranthus retroflexus, pre-emergence, 312 h, evaluated after 13 days; for pest or weed control at 15.625 g/ha: 15.625 g ai/ha; for pest or weed control at 15.625 g/ha / pest or weed control at 250 g/ha: read-out: Pigweed, Redroot damage rating (100=total damage to plant; 0=no damage to plant); for pest or weed control at 62.5 g/ha: 62.5 g ai/ha, 100=total damage to plant, 0=no damage to plant, read-out: Pigweed, Redroot damage rating; for pest or weed control at 250 g/ha: 250 g ai/ha
Method in brief: as §1

[6] = tested on: velvetleaf (Abutilon theophrasti); assay: Test G Pre-Emergence Protocol; conditions: Abutilon theophrasti, pre-emergence, 312 h, evaluated after 13 days; for pest or weed control at 15.625 g/ha: 15.625 g ai/ha; for pest or weed control at 15.625 g/ha / pest or weed control at 250 g/ha: read-out: Velvetleaf damage rating (100=total damage to plant; 0=no damage to plant); for pest or weed control at 62.5 g/ha: 62.5 g ai/ha, 100=total damage to plant, 0=no damage to plant, read-out: Velvetleaf damage rating; for pest or weed control at 250 g/ha: 250 g ai/ha
Method in brief: as §1

[7] = tested on: barnyardgrass (Echinochloa crus-galli); assay: Test G Post-Emergence Protocol; conditions: Echinochloa crus-galli, post-emergence, 312 h, read-out: Barnyardgrass damage rating; for pest or weed control at 15.625 g/ha: 15.625 g ai/ha, evaluated after 13 days (100=total damage to plant; 0=no damage to plant); for pest or weed control at 62.5 g/ha: 62.5 g ai/ha; for pest or weed control at 62.5 g/ha / pest or weed control at 250 g/ha: evaluated after 13 days, 100=total damage to plant, 0=no damage to plant; for pest or weed control at 250 g/ha: 250 g ai/ha
Method in brief: (§2)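 Seedlings grown 8 days in soil in a glasshouse (24/16 °C day/night, 14 h light, 65% humidity) were sprayed post-emergence with compound in acetone/water 50:50 plus 0.5% Tween 20 at 15.625, 62.5 or 250 g/ha. Damage was scored after 13 days on a 0–100 scale (100 = total damage).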

corn (Zea mays) [8] = assay: Test G Post-Emergence Protocol; conditions: Zea mays, post-emergence, 312 h, read-out: Corn damage rating; for plant injury at 15.625 g/ha: 15.625 g ai/ha, evaluated after 13 days (100=total damage to plant; 0=no damage to plant); for plant injury at 62.5 g/ha: 62.5 g ai/ha; for plant injury at 62.5 g/ha / plant injury at 250 g/ha: evaluated after 13 days, 100=total damage to plant, 0=no damage to plant; for plant injury at 250 g/ha: 250 g ai/ha
Method in brief: as §2

[9] = tested on: giant foxtail (Setaria faberi); assay: Test G Post-Emergence Protocol; conditions: Setaria faberi, post-emergence, 312 h, read-out: Foxtail, Giant damage rating; for pest or weed control at 15.625 g/ha: 15.625 g ai/ha, evaluated after 13 days (100=total damage to plant; 0=no damage to plant); for pest or weed control at 62.5 g/ha: 62.5 g ai/ha; for pest or weed control at 62.5 g/ha / pest or weed control at 250 g/ha: evaluated after 13 days, 100=total damage to plant, 0=no damage to plant; for pest or weed control at 250 g/ha: 250 g ai/ha
Method in brief: as §2

[10] = tested on: ivy-leaved morning glory (Ipomoea hederacea); assay: Test G Post-Emergence Protocol; conditions: Ipomoea, post-emergence, 312 h, read-out: Morningglory, Ivy-leaved damage rating; for pest or weed control at 15.625 g/ha: 15.625 g ai/ha, evaluated after 13 days (100=total damage to plant; 0=no damage to plant); for pest or weed control at 62.5 g/ha: 62.5 g ai/ha; for pest or weed control at 62.5 g/ha / pest or weed control at 250 g/ha: evaluated after 13 days, 100=total damage to plant, 0=no damage to plant; for pest or weed control at 250 g/ha: 250 g ai/ha
Method in brief: as §2

[11] = tested on: redroot pigweed (Amaranthus retroflexus); assay: Test G Post-Emergence Protocol; conditions: Amaranthus retroflexus, post-emergence, 312 h, read-out: Pigweed, Redroot damage rating; for pest or weed control at 15.625 g/ha: 15.625 g ai/ha, evaluated after 13 days (100=total damage to plant; 0=no damage to plant); for pest or weed control at 62.5 g/ha: 62.5 g ai/ha; for pest or weed control at 62.5 g/ha / pest or weed control at 250 g/ha: evaluated after 13 days, 100=total damage to plant, 0=no damage to plant; for pest or weed control at 250 g/ha: 250 g ai/ha
Method in brief: as §2

[12] = tested on: velvetleaf (Abutilon theophrasti); assay: Test G Post-Emergence Protocol; conditions: Abutilon theophrasti, post-emergence, 312 h, read-out: Velvetleaf damage rating; for pest or weed control at 15.625 g/ha: 15.625 g ai/ha, evaluated after 13 days (100=total damage to plant; 0=no damage to plant); for pest or weed control at 62.5 g/ha: 62.5 g ai/ha; for pest or weed control at 62.5 g/ha / pest or weed control at 250 g/ha: evaluated after 13 days, 100=total damage to plant, 0=no damage to plant; for pest or weed control at 250 g/ha: 250 g ai/ha
Method in brief: as §2

| Compound | pest or weed control at 15.625 g/ha [1] [%] | pest or weed control at 62.5 g/ha [1] [%] | pest or weed control at 250 g/ha [1] [%] | plant injury at 15.625 g/ha (corn (Zea mays) [2]) [%] | plant injury at 62.5 g/ha (corn (Zea mays) [2]) [%] | plant injury at 250 g/ha (corn (Zea mays) [2]) [%] | pest or weed control at 15.625 g/ha [3] [%] | pest or weed control at 62.5 g/ha [3] [%] | pest or weed control at 250 g/ha [3] [%] | pest or weed control at 15.625 g/ha [4] [%] | pest or weed control at 62.5 g/ha [4] [%] | pest or weed control at 250 g/ha [4] [%] | pest or weed control at 15.625 g/ha [5] [%] | pest or weed control at 62.5 g/ha [5] [%] | pest or weed control at 250 g/ha [5] [%] | pest or weed control at 15.625 g/ha [6] [%] | pest or weed control at 62.5 g/ha [6] [%] | pest or weed control at 250 g/ha [6] [%] | pest or weed control at 15.625 g/ha [7] [%] | pest or weed control at 62.5 g/ha [7] [%] | other results |
| --- | --- | --- | --- | --- | --- | --- | --- | --- | --- | --- | --- | --- | --- | --- | --- | --- | --- | --- | --- | --- | --- |
| CN1C[C@H](c2cc(F)cc(F)c2)[C@@H](C(=O)Nc2cnccc2C(F)(F)F)C1=O (racemic) [Compound 1741] | 0 | 40 | 70 | 0 | 10 | 30 | 0 | 90 | 90 | 0 | 0 | 0 | 10 | 20 | 30 | 0 | 30 | 60 | 0 | 0 | pest or weed control at 250 g/ha [7]: 70%; plant injury at 15.625 g/ha (corn (Zea mays) [8]): 0%; plant injury at 62.5 g/ha (corn (Zea mays) [8]): 0%; plant injury at 250 g/ha (corn (Zea mays) [8]): 0%; pest or weed control at 15.625 g/ha [9]: 50%; pest or weed control at 62.5 g/ha [9]: 80%; pest or weed control at 15.625 g/ha [10]: 0%; pest or weed control at 62.5 g/ha [10]: 30%; pest or weed control at 250 g/ha [10]: 10%; pest or weed control at 15.625 g/ha [11]: 0%; pest or weed control at 62.5 g/ha [11]: 0%; pest or weed control at 250 g/ha [11]: 0%; pest or weed control at 15.625 g/ha [12]: 0%; pest or weed control at 62.5 g/ha [12]: 0%; pest or weed control at 250 g/ha [12]: 10% |
| Cc1cc(F)ncc1NC(=O)[C@H]1C(=O)N(C)C[C@@H]1c1ccc(C(F)(F)F)cc1 (racemic) [Compound 1733] | 0 | 20 | 70 | 0 | 20 | 80 | 10 | 80 | 90 | 0 | 20 | 80 | 0 | 70 | 80 | 0 | 50 | 80 | 0 | 0 | pest or weed control at 250 g/ha [7]: 80%; plant injury at 15.625 g/ha (corn (Zea mays) [8]): 0%; plant injury at 62.5 g/ha (corn (Zea mays) [8]): 50%; plant injury at 250 g/ha (corn (Zea mays) [8]): 70%; pest or weed control at 15.625 g/ha [9]: 10%; pest or weed control at 62.5 g/ha [9]: 80%; pest or weed control at 250 g/ha [9]: 80%; pest or weed control at 15.625 g/ha [10]: 20%; pest or weed control at 62.5 g/ha [10]: 60%; pest or weed control at 250 g/ha [10]: 70%; pest or weed control at 15.625 g/ha [11]: 10%; pest or weed control at 62.5 g/ha [11]: 20%; pest or weed control at 250 g/ha [11]: 80%; pest or weed control at 15.625 g/ha [12]: 0%; pest or weed control at 62.5 g/ha [12]: 40%; pest or weed control at 250 g/ha [12]: 80% |
| CN1C[C@H](c2ccc(C(F)(F)F)cc2)[C@@H](C(=O)Nc2cccc(F)c2S(C)(=O)=O)C1=O (racemic) [Compound 1680] | 0 | 20 | 60 | 0 | 0 | 0 | 20 | 60 | 90 | 0 | 0 | 0 | 20 | 20 | 70 | 10 | 10 | 90 | 20 | 20 | pest or weed control at 250 g/ha [7]: 50%; plant injury at 15.625 g/ha (corn (Zea mays) [8]): 0%; plant injury at 62.5 g/ha (corn (Zea mays) [8]): 0%; plant injury at 250 g/ha (corn (Zea mays) [8]): 0%; pest or weed control at 15.625 g/ha [9]: 30%; pest or weed control at 62.5 g/ha [9]: 80%; pest or weed control at 250 g/ha [9]: 80%; pest or weed control at 15.625 g/ha [10]: 10%; pest or weed control at 62.5 g/ha [10]: 10%; pest or weed control at 250 g/ha [10]: 20%; pest or weed control at 15.625 g/ha [11]: 50%; pest or weed control at 62.5 g/ha [11]: 60%; pest or weed control at 250 g/ha [11]: 60%; pest or weed control at 15.625 g/ha [12]: 0%; pest or weed control at 62.5 g/ha [12]: 10%; pest or weed control at 250 g/ha [12]: 0% |
